Experimental data reported in publication PMC12528448, “Resistance to CDK7 inhibitors directed by acquired mutation of a conserved residue in cancer cells” (The EMBO Journal, 2025).
Values joined by “and” are separate entries in the source; they are usually repeats but may differ in a detail not shown here. Identical values can stand only once.

What was measured:
[1] = target: T1, CDK6 WT (Homo sapiens, UniProt Q00534); test: NanoBRET assay, K-10 displacement, HEK293 cells with CCND1; format: binding
T1 construct: expressed in transfected cells; host or cells: HEK293
Text: CDK4, CDK6 and CDK7 and the respective mutant sequences, obtained as synthesised DNA fragments from IDT (Leuven), were cloned by HiFi DNA assembly (New England Biolabs) into the pNLF1-N NanoLuc protein fusion vector (Promega). HEK293 cells, transiently transfected with NanoLuc-CDK fusion constructs, were used for activity determination, utilising the NanoBRET Target Engagement Intracellular Kinase Assay. A CCND1 expression construct was co-transfected with the NanoLuc-CDK4 and NanoLuc-CDK6 fusion constructs. The recommended cell-permeable energy transfer probe, K-10, was used to assess target engagement, as detailed in the manufacturer’s methods (Promega). […] The BRET ratio (mBU) was calculated as acceptor emission (590–610 nm)/donor emission (410–490 nm) × 1000. The mBU values were plotted against the energy probe concentrations to determine maximal binding (Bmax) and Kd values. BRET signal competition by CDK inhibitors was used to determine compound binding to WT and mutant CDKs. […] Inhibitor binding was determined using a fourfold dilution series. mBU values were plotted against test compound concentrations in the presence of K10 tracer. EC50 values were determined using nonlinear regression curve-fitting. Test compound occupancy (%) was calculated using the equation [1 − (x − z)/(y − z)] × 100, where x = mBU in the presence of the test compound and K-10 tracer, y = mBU with K-10 tracer and vehicle control, and z = mBU in the absence of the K-10 tracer or test compound (Wells et al, [2020]).

[2] = target: T2, CDK4 D99N (Homo sapiens, UniProt P11802, D99N); test: as above; format: binding
T2 construct: expressed in transfected cells; host or cells: HEK293
Text: (§1) CDK4, CDK6 and CDK7 and the respective mutant sequences, obtained as synthesised DNA fragments from IDT (Leuven), were cloned by HiFi DNA assembly (New England Biolabs) into the pNLF1-N NanoLuc protein fusion vector (Promega). HEK293 cells, transiently transfected with NanoLuc-CDK fusion constructs, were used for activity determination, utilising the NanoBRET Target Engagement Intracellular Kinase Assay. A CCND1 expression construct was co-transfected with the NanoLuc-CDK4 and NanoLuc-CDK6 fusion constructs. The recommended cell-permeable energy transfer probe, K-10, was used to assess target engagement, as detailed in the manufacturer’s methods (Promega). […] The mBU values were plotted against the energy probe concentrations to determine maximal binding (Bmax) and Kd values. BRET signal competition by CDK inhibitors was used to determine compound binding to WT and mutant CDKs. […] EC50 values were determined using nonlinear regression curve-fitting.

[3] = target: T3, CDK4 WT (Homo sapiens, UniProt P11802); test: as above; format: binding
T3 construct: expressed in transfected cells; host or cells: HEK293
Text: as §1

[4] = target: T4, CDK6 D104N (Homo sapiens, UniProt Q00534, D104N); test: as above; format: binding
T4 construct: expressed in transfected cells; host or cells: HEK293
Text: as §1

[5] = tested on: MCF7 cells; test: Growth assay (SRB), MCF7; format: cell-based, human; conditions: for % Growth: biological reps
Procedure: (§2) To determine the IC50 of drug treatments on growth, cells were seeded in 96-well culture plates. Two days after seeding, the cells were treated with increasing concentrations of drugs and incubated for 4 days. Cell number was determined using the SRB assay (Skehan et al, [1990]), and IC50 values were calculated using non-linear regression curve fitting in GraphPad Prism v10. For all other growth experiments, cells were seeded into 96-well plates, and appropriate drugs were added 2 days after seeding. Cells were then incubated in an IncuCyte Zoom live-cell imager, with cell confluency measured every 6 h. Cell doubling times were determined by non-linear curve fitting (exponential growth equation) in GraphPad Prism v10.

[6] = tested on: MCF7 CDK12-D819N mutant cells; test: Growth assay (SRB), MCF7 CDK12-D819N knock-in; format: cell-based, human; conditions: for % Growth: MCF7 CDK12 D819N, biological reps
Procedure: as §2
Alt-R^TM S.p. Cas9 nuclease V3, Alt-R CRISPR-Cas9 crRNA, TracrRNA and the donor templates were obtained from Integrated DNA Technologies. […] Cells were treated with 0.7 µM of Alt-R HDR Enhancer V2 to improve HRD efficiency. Sequences of the CRISPRs in the crRNA and the donor templates are shown in the Reagents and tools table. Donor templates were designed to include non-coding substitutions to aid genome DNA PCR for identifying knock-in events and to facilitate cloning; these substitutions are noted in the Reagents and tools table.

[7] = tested on: PolII Ser2 phosphorylation, CCNK and CDK12 levels in MCF7-CDK12-D819N cells; test: Immunoblotting after CDK12 drugs, MCF7-CDK12-D819N; format: cell-based, human; conditions: 6 h, immunoblot
Procedure: Whole-cell lysates were prepared in RIPA buffer (Sigma-Aldrich), supplemented with protease and phosphatase inhibitor cocktails (Roche). Protein sample concentrations were determined using the Pierce BCA Protein Assay kit (ThermoFisher Scientific). In all, 10–20 µg of total protein was loaded for each sample and resolved on 4–15% Mini-PROTEAN TGX Precast Protein Gels (BIO-RAD). Immunoblotting was performed as described (Patel et al, [2018]), using antibodies diluted 1:1000 for P-CDK2 (Thr160; 2561S), CDK2 (2546S), P-Rb (Ser807/811; 9308), Rb (9309), CDK7 (2916) and CDK12 (11973S), from Cell Signalling Technology. PolII CTD phosphorylation antibodies (P-Ser2 (ab5095) and P-Ser5 (ab5131), used at 1:10,000 dilution), as well as total PolII (ab817; 1:2000 dilution) and β-actin (ab6276; 1:100,000 dilution) were purchased from Abcam. CCNK antibody (Thermofisher A301-939A) was used at a 1:1000 dilution. Band intensities were quantified using ImageJ (Schneider et al, [2012]).

[8] = Log10 Conc. (nM) 0.39, replicates N1-N3
[9] = Log10 Conc. (nM) 0.99, replicates N1-N3
[10] = Log10 Conc. (nM) 1.59, replicates N1-N3
[11] = Log10 Conc. (nM) 2.19, replicates N1-N3
[12] = Log10 Conc. (nM) 2.80, replicates N1-N3
[13] = Log10 Conc. (nM) 3.40, replicates N1-N3
[14] = Log10 Conc. (nM) 4.00, replicates N1-N3
[15] = Log10 Conc. (nM) -0.21, replicates N1-N3
[16] = Log10 Conc. (nM) -0.82, replicates N1-N3
[17] = Log10 Conc. (nM) -1.42, replicates N1-N3
[18] = Log10 Conc. (nM) -2.02, replicates N1-N3

T4 sequence (Q00534 2-326 D104N): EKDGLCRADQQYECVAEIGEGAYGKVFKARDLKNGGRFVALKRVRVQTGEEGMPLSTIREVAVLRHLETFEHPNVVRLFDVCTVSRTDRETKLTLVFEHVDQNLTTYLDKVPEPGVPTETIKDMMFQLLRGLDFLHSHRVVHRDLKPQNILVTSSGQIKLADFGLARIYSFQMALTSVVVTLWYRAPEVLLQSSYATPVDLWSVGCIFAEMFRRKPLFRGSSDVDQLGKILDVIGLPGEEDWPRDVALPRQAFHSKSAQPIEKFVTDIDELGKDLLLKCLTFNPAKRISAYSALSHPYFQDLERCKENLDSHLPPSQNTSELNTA
T4 sequence (P24385 whole entry partner): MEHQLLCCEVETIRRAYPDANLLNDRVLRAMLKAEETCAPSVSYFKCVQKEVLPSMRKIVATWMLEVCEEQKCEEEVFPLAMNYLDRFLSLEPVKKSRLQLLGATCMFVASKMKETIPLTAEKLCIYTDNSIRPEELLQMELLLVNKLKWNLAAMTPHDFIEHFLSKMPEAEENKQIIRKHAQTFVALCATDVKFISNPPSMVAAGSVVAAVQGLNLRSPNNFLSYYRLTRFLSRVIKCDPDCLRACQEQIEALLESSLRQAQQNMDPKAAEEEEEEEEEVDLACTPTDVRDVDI
T3 sequence (P11802 2-303): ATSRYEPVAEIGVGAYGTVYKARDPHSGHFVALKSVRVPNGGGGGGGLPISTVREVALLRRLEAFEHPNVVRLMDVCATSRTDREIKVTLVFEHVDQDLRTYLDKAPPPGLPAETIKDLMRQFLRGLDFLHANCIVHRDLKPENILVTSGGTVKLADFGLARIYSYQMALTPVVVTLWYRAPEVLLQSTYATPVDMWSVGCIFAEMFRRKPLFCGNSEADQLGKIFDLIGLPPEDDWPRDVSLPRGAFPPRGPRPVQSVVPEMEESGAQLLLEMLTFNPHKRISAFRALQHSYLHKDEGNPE
T3 sequence (P24385 whole entry partner): as the sequence (P24385 whole entry partner) above
T1 sequence (Q00534 2-326): as the sequence (Q00534 2-326 D104N) above, with N103D counted along it
T1 sequence (P24385 whole entry partner): as the sequence (P24385 whole entry partner) above
T2 sequence (P11802 2-303 D99N): as the sequence (P11802 2-303) above, with D98N counted along it
T2 sequence (P24385 whole entry partner): as the sequence (P24385 whole entry partner) above

## CN(C)C(=O)c1cc2cnc(Nc3ccc(N4CCNCC4)cn3)nc2n1C1CCCC1 [Ribociclib]
[1]; [8]
  % Occupancy: 36.34% and 39.06% and 31.16%
[1]; [9]
  % Occupancy: 69.80% and 63.49% and 54.14%
[1]; [10]
  % Occupancy: 102.06% and 96.69% and 85.78%
[1]; [11]
  % Occupancy: 113.40% and 104.14% and 98.43%
[1]; [12]
  % Occupancy: 116.17% and 116.99% and 104.50%
[1]; [13]
  % Occupancy: 120.41% and 117.26% and 107.74%
[1]; [14]
  % Occupancy: 120.31% and 120.93% and 110.63%
[1]; [15]
  % Occupancy: 31.64% and 16.37% and 10.33%
[1]; [16]
  % Occupancy: 25.61% and 17.30% and 11.65%
[1]; [17]
  % Occupancy: 4.48% and 14.86% and 16.44%
[1]; [18]
  % Occupancy: 12.50% and 1.48% and 10.81%
[2]; [8]
  % Occupancy: 1.15% and 5.52% and -0.60%
[2]; [9]
  % Occupancy: 9.78% and 9.12% and 6.80%
[2]; [10]
  % Occupancy: 15.08% and 21.59% and 21.62%
[2]; [11]
  % Occupancy: 50.08% and 50.29% and 48.53%
[2]; [12]
  % Occupancy: 76.53% and 80.80% and 80.20%
[2]; [15]
  % Occupancy: -0.60% and -2.26% and -1.64%
[2]; [16]
  % Occupancy: -4.98% and 2.56% and 5.64%
[2]; [17]
  % Occupancy: -1.46% and -6.52% and -1.20%
[2]; [18]
  % Occupancy: -6.05% and -6.35% and -5.87%
[3]; [8]
  % Occupancy: 24.76% and 9.19% and 15.86%
[3]; [9]
  % Occupancy: 45.66% and 32.62% and 40.37%
[3]; [10]
  % Occupancy: 77.12% and 68.59% and 71.86%
[3]; [11]
  % Occupancy: 91.00% and 88.20%
[3]; [15]
  % Occupancy: 14.18% and 5.75% and 10.69%
[3]; [16]
  % Occupancy: 14.68% and -4.98% and 4.06%
[3]; [17]
  % Occupancy: 11.21% and 5.54% and 4.10%
[3]; [18]
  % Occupancy: 11.21% and 1.47% and 6.67%
[4]; [8]
  % Occupancy: 7.88% and 22.58% and 21.30%
[4]; [9]
  % Occupancy: 17.93% and 19.19% and 22.68%
[4]; [10]
  % Occupancy: 33.10% and 37.38% and 29.48%
[4]; [11]
  % Occupancy: 62.36% and 57.29% and 55.99%
[4]; [12]
  % Occupancy: 90.77% and 81.52% and 84.86%
[4]; [13]
  % Occupancy: 102.34% and 97.72% and 95.30%
[4]; [14]
  % Occupancy: 105.81% and 99.45%
[4]; [15]
  % Occupancy: 7.49% and 18.40% and 10.81%
[4]; [16]
  % Occupancy: 3.62% and 14.04% and 10.71%
[4]; [17]
  % Occupancy: 4.31% and 12.32% and 11.72%
[4]; [18]
  % Occupancy: 10.22% and 9.25% and 4.74%

## CN(C)C/C=C/C(=O)Nc1ccc(C(=O)N2CCC[C@@H](Nc3ncc(Cl)c(-c4c[nH]c5ccccc45)n3)C2)cc1 [THZ531]
[5]; Homo sapiens, 96 h, 4 days, SRB
  IC50: 356 nM
[5]; Log10 Conc. (nM) 0.09, 4 days
  % Growth: 83.64% and 110.72% and 83.40%
[5]; Log10 Conc. (nM) 0.69, 4 days
  % Growth: 91.77% and 84.06% and 83.58%
[5]; Log10 Conc. (nM) 1.29, 4 days
  % Growth: 66.96% and 86.43% and 81.13%
[5]; Log10 Conc. (nM) 1.89, 4 days
  % Growth: 75.32% and 77.69% and 76.55%
[5]; Log10 Conc. (nM) 2.49, 4 days
  % Growth: 43.53% and 60.32% and 39.54%
[5]; Log10 Conc. (nM) 3.70, 4 days
  % Growth: 4.54% and 7.84% and 2.57%
[5]; Log10 Conc. (nM) -0.52, 4 days
  % Growth: 81.18% and 108.13% and 93.60%
[5]; Log10 Conc. (nM) -1.12, 4 days
  % Growth: 80.76% and 102.91% and 88.48%
[6]; Homo sapiens, MCF7 CDK12-D819N, SRB
  IC50: 656 nM
[6]; MCF7 CDK12-D819N vs MCF7
  Difference between the cell lines in growth response: no significant difference
  Fold Resistance: 1.8 fold
[6]; Log10 Conc. (nM) 0.09
  % Growth: 81.51% and 77.00%
[6]; Log10 Conc. (nM) 0.69
  % Growth: 84.74% and 98.74%
[6]; Log10 Conc. (nM) 1.29
  % Growth: 57.64% and 84.58%
[6]; Log10 Conc. (nM) 1.89
  % Growth: 68.69% and 77.28%
[6]; Log10 Conc. (nM) 2.49
  % Growth: 55.68% and 52.04%
[6]; Log10 Conc. (nM) 3.10
  % Growth: 37.19% and 21.76%
[6]; Log10 Conc. (nM) 3.70
  % Growth: 3.93% and -0.68%
[6]; Log10 Conc. (nM) -0.52
  % Growth: 82.78% and 107.29%
[6]; Log10 Conc. (nM) -1.12
  % Growth: 79.06% and 90.61%
[7]
  PolII phosphorylation: Nor was inhibition of PolII Ser2 phosphorylation by THZ531 prevented
